[ ]: non-standard residue; d: D form. pGlu = O=C1CC[C@@H](C(=O)O)N1
What was measured:
Assay type in all cases: cell-based, human
PBMC [1] = test: IFN-γ ELISpot on PBMC of CD patients on day 6 after 3-day oats challenge; details: after 3-day oats challenge
Excerpt: (§1) Australian Caucasian HLA-DQ2.5^+ and/or HLA-DQ8^+ CD subjects were recruited by advertisement in the Coeliac Society of Victoria newsletter and all had biopsy-proven CD conforming to ESPGHAN criteria. Patients had been on strict gluten free diet for at least 4 weeks prior to commencing grain challenge. Patients underwent 3-day grain challenge with oats, barley, or combined wheat, barley, and rye muffins, and 6 days after commencement, blood was collected. Day 0 responses were not observed in the selection of patients tested, as described previously^8.
(§2) Oats challenge consisted of 100 g dry weight daily of one of three commercial brands of oats: one not tested for wheat contamination (Uncle Toby's; Oats #1), and two shown by R5 ELISA to contain less than 20 ppm wheat gluten (Tilquhilie Pudding; Oats #2 and Freedom Food; Oats #3). Barley challenge consisted of pearl barley (Ward McKenzie) cooked into a risotto (150 g dry weight daily) and the wheat challenge consisted of four 50 g slices of wheat bread daily (Baker's Delight white loaf cut to toasting thickness). The combined wheat, barley, and rye challenge consisted of muffins baked with wheat flour (White Wings), barley flour (Four Leaf Milling), and rye flour (Four Leaf Milling; 22-25 g dry weight each daily). A symptom diary based on a […] Likert scale was completed by participants daily from baseline until day 6.
(§3) Two avenin peptide libraries were utilized for epitope screening. These were designed using avenin sequences from GenBank and a customized algorithm, as previously described^9. The initial library consisted of 199 screening-grade 20 mers including all possible 12 mers (Mimotopes). This library was screened with and without tTG pre-treatment. The second library consisted of additional avenin sequences that were synthesized with glutamate substitution at sites predicted to be deamidated by published algorithms^10, 11 removing the requirement for tTG treatment. This library contained 369 screening-grade 20 mers, including all possible 12 mers (Pepscan). The second round avenin library contained wild-type and deamidated versions of the most immunogenic sequences (25 high quality 16 mers from Mimotopes). High quality peptides containing previously described immunogenic sequences from wheat, barley, and rye were used to test for cross-reactivity^8 (Pepscan). High quality hordein and avenin peptides for TCC testing and biochemical studies were ordered from Pepscan, Mimotopes, or GL Biochem.
(§4) Peripheral blood mononuclear cells (PBMC) were isolated from heparinized whole blood using Ficoll-Paque™ Plus density-gradient centrifugation (GE Healthcare). IFN-γ ELISpot (Mabtech) was set up as previously described^8.

Patient 2 TCC-03 = test: IFN-γ ELISpot with T cell clone; details: TCC Patient 2 TCC-03, peptide 25 μg/mL
Description: as §4
(§5) Isolation of TCC from CD patients was carried out as previously described^8. Briefly, CFSE-labeled PBMC were incubated with antigen for 7 days in IMDM supplemented with 5% heat-inactivated pooled human serum (PHS), 2 mM GlutaMAX™, 100 μM MEM non-essential amino acids (both from Gibco, Invitrogen), and 50 μM 2-mercaptoethanol (Sigma). Proliferated cells were single-cell sorted into 96-well plates containing IL-2, IL-4, anti-CD3 mAb, irradiated feeder cells (allogeneic PBMC and JY-EBV). TCC were expanded and maintained in IL-2 and IL-4 and tested for specificity by ELISpot with irradiated HLA-matched PBMC as antigen-presenting cells. Expanded clones were tested for HLA-DQ restriction, TCR Vbeta usage, and with lysine scans to work out minimal epitopes. See Table 1 below for TCC and epitope information.

Patient 2 TCC-02 = test: IFN-γ ELISpot with T cell clone
Description: as §4, §5

Patient 2 TCC-01 = test: IFN-γ ELISpot with T cell clone
Description: as §4, §5

Patient 6 TCC-01 = test: IFN-γ ELISpot with T cell clone
Description: as §4, §5

Patient 8 TCC-01 = test: IFN-γ ELISpot with T cell clone; details: TCC Patient 8 TCC-01, peptide 25 μg/mL
Description: as §4, §5

PBMC [2] = test: IFN-γ ELISpot on PBMC of CD patients after 3-day barley challenge; details: after barley challenge
Excerpt: as §1, §2, §3, §4

Patient 14 TCC-01 = test: IFN-γ ELISpot with T cell clone
Description: as §4, §5

Patient 9 TCC-02 = test: IFN-γ ELISpot with T cell clone; details: TCC Patient 9 TCC-02, peptide 50 μg/mL
Description: as §4, §5

Patient 9 TCC-01 = test: IFN-γ ELISpot with T cell clone; details: TCC Patient 9 TCC-01, peptide 50 μg/mL
Description: as §4, §5

Patient 10 TCC-01 = test: IFN-γ ELISpot with T cell clone; details: TCC Patient 10 TCC-01, peptide 50 μg/mL
Description: as §4, §5

[3] = TCC Patient 2 TCC-02, peptide 25 μg/mL

Sequence	IFN-γ ELISpot response (raw SFU) (PBMC [1]; patient P1, peptide 1 μg/ml)	IFN-γ ELISpot response (raw SFU) (PBMC [1]; patient P1, peptide 10 μg/ml)	significant SFU as a percentage of maximal peptide SFU (PBMC [1]; patient P1, peptide 10 μg/ml)	IFN-γ ELISpot response (raw SFU) (PBMC [1]; patient P1, peptide 100 μg/ml)	IFN-γ ELISpot response (raw SFU) (PBMC [1]; patient P2, peptide 1 μg/ml)	IFN-γ ELISpot response (raw SFU) (PBMC [1]; patient P2, peptide 10 μg/ml)	IFN-γ ELISpot response (raw SFU) (PBMC [1]; patient P2, peptide 100 μg/ml)	significant SFU as a percentage of maximal peptide SFU (PBMC [1]; patient P2, peptide 100 μg/ml)	IFN-γ ELISpot response (raw SFU) (PBMC [1]; patient P3, peptide 1 μg/ml)	IFN-γ ELISpot response (raw SFU) (PBMC [1]; patient P3, peptide 10 μg/ml)	IFN-γ ELISpot response (raw SFU) (PBMC [1]; patient P3, peptide 100 μg/ml)	IFN-γ ELISpot response (raw SFU) (PBMC [1]; patient P11, peptide 1 μg/ml)	IFN-γ ELISpot response (raw SFU) (PBMC [1]; patient P11, peptide 10 μg/ml)	IFN-γ ELISpot response (raw SFU) (PBMC [1]; patient P11, peptide 100 μg/ml)	IFN-γ ELISpot response (raw SFU) (PBMC [1]; patient P12, peptide 1 μg/ml)	IFN-γ ELISpot response (raw SFU) (PBMC [1]; patient P12, peptide 10 μg/ml)	IFN-γ ELISpot response (raw SFU) (PBMC [1]; patient P12, peptide 100 μg/ml)	IFN-γ ELISpot response (raw SFU) (PBMC [1]; patient P13, peptide 50 μg/ml)	other results
QYQPYPEQEEPFVQQQ	8 SFU	15 SFU	** (**: 40-70%)	5 SFU	7 SFU	12 SFU	20 SFU	* (*: 20-40%)	20 SFU	31 SFU	2 SFU	2 SFU	0 SFU	0 SFU	4 SFU	3 SFU	2 SFU	9 SFU	significant SFU as a percentage of maximal peptide SFU (PBMC [1]; patient P2, peptide 10 μg/ml): * (*: 20-40%); significant SFU as a percentage of maximal peptide SFU (PBMC [1]; patient P3, peptide 1 μg/ml): * (*: 20-40%); significant SFU as a percentage of maximal peptide SFU (PBMC [1]; patient P3, peptide 10 μg/ml): ** (**: 40-70%); IFN-γ ELISpot response (SFU) (Patient 2 TCC-03): 0 SFU; rank of TCC response among homologous peptides (Patient 2 TCC-02; Patient 2 TCC-02 (FIG. 2)): greatest response; IFN-γ ELISpot response (SFU) (Patient 2 TCC-02; [3]): 284 SFU; significant SFU as a percentage of maximal peptide SFU (Patient 2 TCC-02; [3]): *** (***: >70%); IFN-γ ELISpot response (SFU) (Patient 2 TCC-01; TCC Patient 2 TCC-01, peptide 25 μg/mL): 2 SFU; IFN-γ ELISpot response (SFU) (Patient 6 TCC-01; TCC Patient 6 TCC-01, peptide 25 μg/mL): 1 SFU; IFN-γ ELISpot response (SFU) (Patient 8 TCC-01): 0 SFU
SEQYQPYPEQEQPFVQ [deamidated avenin peptide containing DQ2.5-ave-1b]	24 SFU	18 SFU	** (**: 40-70%)	10 SFU	5 SFU	9 SFU	24 SFU	** (**: 40-70%)	4 SFU	7 SFU	2 SFU	0 SFU	3 SFU	0 SFU	2 SFU	4 SFU	2 SFU	13 SFU	IFN-γ ELISpot response (raw SFU) (PBMC [2]; Patient 1, peptide 50 μg/ml): 77 SFU; significant SFU as a percentage of maximal peptide SFU (PBMC [2]; Patient 1, peptide 50 μg/ml): * (*: 20-40%); IFN-γ ELISpot response (raw SFU) (PBMC [2]; Patient 2, peptide 50 μg/ml): 225 SFU; significant SFU as a percentage of maximal peptide SFU (PBMC [2]; Patient 2, peptide 50 μg/ml): *** (***: >70%); IFN-γ ELISpot response (raw SFU) (PBMC [2]; Patient 3, peptide 50 μg/ml): 36 SFU; significant SFU as a percentage of maximal peptide SFU (PBMC [2]; Patient 3, peptide 50 μg/ml): * (*: 20-40%); significant SFU as a percentage of maximal peptide SFU (PBMC [1]; patient P1, peptide 1 μg/ml): *** (***: >70%); significant SFU as a percentage of maximal peptide SFU (PBMC [1]; patient P13, peptide 50 μg/ml): * (*: 20-40%); IFN-γ ELISpot response (raw SFU) (Patient 14 TCC-01; TCC Patient 14 TCC-01 (Table 5), mean no antigen 11.3, high background, SFU >25 considered as positive responses): 10 SFU; IFN-γ ELISpot response (raw SFU) (Patient 2 TCC-01; TCC Patient 2 TCC-01 (Table 5), mean no antigen 1.1): 295 SFU; IFN-γ ELISpot response (raw SFU) (Patient 6 TCC-01; TCC Patient 6 TCC-01 (Table 5), mean no antigen 2): 12 SFU
QPFPQPEQPFPWQP ([pGlu]PFPQPEQPFPWQP-NH2; SMILES NC(=O)CC[C@H](NC(=O)[C@H](Cc1c[nH]c2ccccc12)NC(=O)[C@@H]1CCCN1C(=O)[C@H](Cc1ccccc1)NC(=O)[C@@H]1CCCN1C(=O)[C@H](CCC(N)=O)NC(=O)[C@H](CCC(=O)O)NC(=O)[C@@H]1CCCN1C(=O)[C@H](CCC(N)=O)NC(=O)[C@@H]1CCCN1C(=O)[C@H](Cc1ccccc1)NC(=O)[C@@H]1CCCN1C(=O)[C@@H]1CCC(=O)N1)C(=O)N1CCC[C@H]1C(N)=O) [wheat gliadin peptide containing DQ2.5-glia-ω1 and DQ2.5-glia-ω2, reference compound]	–	–	–	–	–	–	–	–	–	–	–	–	–	–	–	–	–	–	IFN-γ ELISpot response (raw SFU) (Patient 14 TCC-01; TCC Patient 14 TCC-01, peptide 50 μg/mL): 20 SFU; IFN-γ ELISpot response (raw SFU) (Patient 9 TCC-02): 0 SFU; IFN-γ ELISpot response (raw SFU) (Patient 2 TCC-01; TCC Patient 2 TCC-01, peptide 50 μg/mL): 2 SFU; IFN-γ ELISpot response (raw SFU) (Patient 9 TCC-01): 1 SFU; IFN-γ ELISpot response (raw SFU) (Patient 6 TCC-01; TCC Patient 6 TCC-01, peptide 50 μg/mL): 1 SFU; IFN-γ ELISpot response (raw SFU) (Patient 10 TCC-01): 205 SFU; significant SFU as a percentage of maximal peptide SFU (Patient 10 TCC-01): *** (***: >70%)

From US20160238590A1, “COMPOSITIONS AND METHODS RELATED TO OAT SENSITIVITY” (IMMUSANT, INC., priority 2013, published 2016)
